Results from article PMC8688955 (Frontiers in Pharmacology, 2021).

Legend:
AMPAR = tested on: AMPAR; set-up: method as in Dudic and Reiner, 2019; conditions: ref Dudic and Reiner, 2019; cited from earlier work
CP-AMPARs = experiment: Whole-cell patch-clamp of kainate-induced currents in isolated striatal giant interneurons; format: cell-based, Wistar rat; conditions: −80 mV; for CP-AMPARs % inhibition at 100 µM: 100 µM compound, currents induced by 100 µM kainate, mean ± SD, N = 5
Description: All experimental procedures were approved by the Animal Care and Use Committee of the I.M. Sechenov Institute of Evolutionary Physiology and Biochemistry of the Russian Academy of Sciences. Wistar rats (13–19 days old) were anesthetized with sevoflurane and then decapitated. Maximum effort was made to minimize the number of animals used. Brains were removed quickly and cooled to 2–4°C in an ice bath. […] Single neurons were freed from slices by vibrodissociation ([Vorobjev, 1991]). The antagonism of CP-AMPARs was studied on striatal giant interneurons ([Bernard et al., 1997]; [Gotz et al., 1997]), which were identified by their shape and size. […] The antagonism of CI-AMPARs was studied on pyramidal neurons from the CA1 area of the hippocampus.
(§1) Series resistance of about 20 MΩ was compensated by 70–80% and monitored during experiments. Currents were recorded using an EPC-8 amplifier (HEKA Electronics, Lambrecht, Germany), filtered at 5 kHz, sampled, and stored on a personal computer. Drugs were applied using the RSC-200 perfusion system (BioLogic Science Instruments, Claix, France) under computer control. The solution exchange time in the whole-cell mode was 50–60 ms. The extracellular solution contained (in mM) NaCl 143, KCl 5, MgCl2 2.0, CaCl2 2.5, D-glucose 18, and HEPES 10 (pH was adjusted to 7.3 with HCl). The pipette solution contained (in mM) CsF 100, CsCl 40, NaCl 5, CaCl2 0.5, EGTA 5, and HEPES 10 (pH was adjusted to 7.2 with CsOH). Experiments were performed at room temperature (22–24°C). […] Lamotrigine, topiramate, levetiracetam, felbamate, carbamazepine, tiagabin, vigabatrin, zonisamide, and gabapentin were purchased from Tocris Bioscience (Bristol, United Kingdom). Perampanel was from MedChemExpress (Stockholm, Sweden). Kinetics of transient processes of more than 20-ms duration was approximated by exponential functions. Experiments were performed at −80 mV holding voltage. All experimental data are presented as mean ± SD estimated from at least four experiments. Significance of the effects was tested with paired t test. Differences were considered significant at p < 0.05. 3D structures of compounds were calculated by the ZMM software (zmmsoft.ca).

[1] = tested on: postsynaptic AMPA receptors; set-up: method as in Lee et al., 2008; conditions: 30 and 100 µM lamotrigine; ref Lee et al., 2008; cited from earlier work
CI-AMPARs = target: T1, CI-AMPARs (Rattus norvegicus, UniProt P19491, Q607R); experiment: Whole-cell patch-clamp of kainate-induced currents in isolated hippocampal CA1 pyramidal neurons; format: cell-based, Wistar rat; conditions: currents induced by 100 µM kainate, −80 mV, mean ± SD, N = 5; for CI-AMPARs % inhibition at 100 µM: 100 µM compound; for inhibition at 100 µM: read-out: CI-AMPARs % inhibition at 100 µM, 100 µM compound
T1 construct: activity against native calcium-permeable AMPA receptors (CP-AMPARs) and calcium-impermeable AMPA receptors (CI-AMPARs); endogenous in cells; host or cells: acutely isolated pyramidal neurons from the CA1 area of Wistar rat hippocampal slices
T1 sequence (P19491 22-883 Q607R): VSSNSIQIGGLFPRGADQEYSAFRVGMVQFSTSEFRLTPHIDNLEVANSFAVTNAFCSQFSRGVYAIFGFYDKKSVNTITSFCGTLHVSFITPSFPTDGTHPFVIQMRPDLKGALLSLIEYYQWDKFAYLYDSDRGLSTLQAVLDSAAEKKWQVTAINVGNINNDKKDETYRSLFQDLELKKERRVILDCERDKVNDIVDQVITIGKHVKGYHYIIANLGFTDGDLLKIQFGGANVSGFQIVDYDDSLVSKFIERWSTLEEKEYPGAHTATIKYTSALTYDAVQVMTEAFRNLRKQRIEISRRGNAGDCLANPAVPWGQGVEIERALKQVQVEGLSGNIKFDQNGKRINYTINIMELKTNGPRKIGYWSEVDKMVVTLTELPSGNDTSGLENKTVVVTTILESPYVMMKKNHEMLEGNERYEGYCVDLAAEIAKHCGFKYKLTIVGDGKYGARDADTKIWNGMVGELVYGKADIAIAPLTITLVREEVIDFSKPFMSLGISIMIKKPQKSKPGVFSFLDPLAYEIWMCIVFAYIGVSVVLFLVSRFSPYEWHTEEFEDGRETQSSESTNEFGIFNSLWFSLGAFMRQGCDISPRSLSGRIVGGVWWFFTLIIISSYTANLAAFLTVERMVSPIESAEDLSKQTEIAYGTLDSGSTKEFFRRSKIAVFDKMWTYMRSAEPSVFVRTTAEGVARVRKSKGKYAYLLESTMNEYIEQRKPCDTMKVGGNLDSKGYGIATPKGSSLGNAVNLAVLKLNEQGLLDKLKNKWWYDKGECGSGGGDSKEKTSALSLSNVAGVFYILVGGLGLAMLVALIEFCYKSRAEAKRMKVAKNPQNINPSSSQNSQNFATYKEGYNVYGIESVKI
Description: All experimental procedures were approved by the Animal Care and Use Committee of the I.M. Sechenov Institute of Evolutionary Physiology and Biochemistry of the Russian Academy of Sciences. Wistar rats (13–19 days old) were anesthetized with sevoflurane and then decapitated. Maximum effort was made to minimize the number of animals used. Brains were removed quickly and cooled to 2–4°C in an ice bath. […] The antagonism of CI-AMPARs was studied on pyramidal neurons from the CA1 area of the hippocampus.
as §1, with “The extracellular solution contained (in mM) NaCl 143, KCl 5, MgCl2 2.0, CaCl2 2.5, D-glucose 18, and HEPES 10 (pH was adjusted to 7.3 with HCl).” left out

hGluA1-4 receptors = tested on: hGluA1-4 receptors; set-up: method as in Fukushima et al. (2020); conditions: ref Fukushima et al. (2020); cited from earlier work
AMPA receptors = tested on: AMPA receptors; set-up: method as in Carunchio et al., 2007; conditions: 200 µM levetiracetam; ref Carunchio et al., 2007; cited from earlier work
[2] = tested on: AMPA and kainate-evoked Ca^2+ uptake; conditions: 30 and 100 µM topiramate; ref Poulsen et al., 2004; cited from earlier work

SMILES | pH-dependence (AMPAR) | IC50 (CP-AMPARs; read-out: IC50 CP-AMPARs, kainate-induced currents, Hill equation) [nM] | decrease of the amplitude of the currents induced by exogenously applied AMPA [1] [%] | CI-AMPARs % inhibition at 100 µM (CI-AMPARs) [%] | inhibition at 100 µM (CI-AMPARs) [%] | CP-AMPARs % inhibition at 100 µM (CP-AMPARs) [%] | CP-AMPARs % inhibition at 100 µM (CP-AMPARs; listed as lamotrigine) [%] | activity against hGluA1-4 receptors (hGluA1-4 receptors) | CI-AMPARs % inhibition at 100 µM (CI-AMPARs; listed as levetiracetam) [%] | decrease of the amplitude of kainate-induced current (AMPA receptors) | CP-AMPARs % inhibition at 100 µM (CP-AMPARs; listed as levetiracetam) [%] | CP-AMPARs % inhibition at 100 µM (CP-AMPARs; listed as topiramate) [%] | inhibition of AMPA and kainate-evoked Ca^2+ uptake [2]
O=c1[nH]c2cc([N+](=O)[O-])c([N+](=O)[O-])cc2[nH]c1=O [DNQX] | Yes ^a | 310 ± 60 | – | – | – | – | – | – | – | – | – | – | –
Nc1nnc(-c2cccc(Cl)c2Cl)c(N)n1 [Lamotrigine] | – | – | 10 | 14 ± 5 | ≤ 20 | 13 ± 3 | ≤ 20 | did not find significant activity | – | – | – | – | –
CC[C@@H](C(N)=O)N1CCCC1=O [Levetiracetam] | – | – | – | 6 ± 2 | – | 9 ± 3 | – | did not find significant activity | ≤ 20 | about 26% | ≤ 20 | – | –
CC1(C)O[C@@H]2[C@@H](CO[C@@]3(COS(N)(=O)=O)OC(C)(C)O[C@@H]23)O1 [Topiramate] | – | – | – | 12 ± 2 | ≤ 20 | 14 ± 2 | – | did not find significant activity | – | – | – | ≤ 20 | up to 60%
